From patent US7396645B1, “Cholestasis signature” (priority 2002, dated 2008)
Where two headings read alike, the source gives them in different places. Marks after values point to notes of the source that are not given here.

How the values were obtained:
[1] = test system: male Sprague-Dawley rats; settings: rat
Excerpt: Compound dosing was based on the acute dose LD50s recorded in published reference or literature sources. […] The MTD (maximum tolerated dose) was then selected as the dose at which the animals […] 5-10% body weight during the 5-day range finding study. […] In addition, the clinical observations must show no or mild clinical signs during the whole of the range-finding study. At the next highest dose, signs and symptoms of adverse effects and exceeding those of the MTD should be seen to occur. Should these criteria not be met, the range-finding study is repeated using a modified dose range.
(§1) After determination of the MTD and FED for a compound, each compound was dissolved in a vehicle for administration on day 1 of the study (additional daily doses were stored as frozen aliquots from this initial formulation). Each compound was administered to three individual male Sprague-Dawley rats for each of the two doses (MTD and FED) for one of four different times (0.25 day, 1 day, 3 days, and 5 days), yielding a total of up to 24 animals per compound study. Vehicle choice was based on solubility of the compound, effect of food on adsorption, and the vehicles used in the literature reports examined during the FED selection investigations, described above. Generally, the route and vehicle in which the FED was defined are used. When there was a choice of routes and vehicles, oral routes were chosen over injection routes. Many compounds, especially oncolytics, are only administerable intravenously. In such cases, the compound was administered as an intravenous formulation into the tail vein. Orally administered compounds were given dissolved in either water, 1% carboxymethycellulose (CMC) or corn oil. Intravenously and intraperitoneally administered compounds were given in 0.9% saline. Subcutaneously administered compounds were given in corn oil. Animal body weights were determined at 1 day and, where appropriate, at 4 days, before necropsy, and clinical observations were made on a daily basis. Control animals were dosed with vehicle only. Three male animals were used for each dose and time combination used for the compound treatment.
(§2) Tissue Harvest and Handling: After the allocated treatment time, the tissues from the animals were harvested. […] All the tissues collected were divided to provide samples for histopathological analyses, and the remainder of each tissue was then snap-frozen. […] The parameters were measured using a Hitachi-911 clinical chemistry analysis instrument according to the manufacturer's instructions. The following blood constituents were measured: Blood Urea Nitrogen (BUN), Creatinine (CRE), Glucose (GLU), Alanine Transaminase (ALT), Aspartate Aminotrans-ferase (AST), Alkaline Phosphatase (ALP), Total Bilirubin (TBI), Sodium (SOD), Potassium (POT), Chloride (CHL), Phosphorus (PHO), Total Protein (TPR), Albumin (ALB), Cholesterol (CHO), Creatine Phosphokinase (CPK), Lactate Dehydrogenase (LDH), Carbon Dioxide (CO2), Uric Acid (UA), and Lipase. […] The parameters were measured using a Baker 9000 blood cell analysis instrument according to the manufactures instructions. The following blood constituents were measured: Leukocyte count (WBC), Differential Leukocyte counts, Erythrocyte count (RBC), Hemoglobin concentration (HGB), Hematocrit (HCT), Mean Corpuscular Volume (MCV), Mean Corpuscular Hemoglobin (MCH), Mean Corpuscular Hemoglobin Concentration (MCC), Thrombocyte Count (PLC). Histopathology: Histopathological analyses of hematoxylin and eosin-stained tissue sections were performed and peer-reviewed by board-certified (Diplomate, American College of Veterinary Pathologists) veterinary pathologists.

[2] = test system: Cholestasis Signature
Method: as §1
as §2, with “pathologists. Preparation of Enriched mRNA: Punch Biopsies were Taken from the Frozen Tissues and were completely homogenized before being processed using the MagNA Pure robot. (Roche Diagnostics Corp., Indianapolis, Ind.) in combination with the MagNA Pure LC RNA Isolation kit II (Roche Diagnostics Corp). The amount of lysis buffer was adjusted to allow 1 ml per 50 mg for liver tissue, or 1 ml per 80 mg for all other tissues. After complete homogenization and before loading of the samples into the 32-well MagNA Pure plate, the samples were syringed 5-6 times using a 20-gauge 3-ml syringe to ensure a smooth solution for robotic processing. Tissue sample processing was performed in duplicate wells (loading 150 μl of homogenized sample and 150 μl of additional lysis buffer to each well) of the MagNA Pure LC, which is programmed to extract mRNA using oligo-dT selection technology into a final elution volume of 100 μl.” for “pathologists.”

[3] = test system: livers of rats; settings: for bile duct hyperplasia: in most animals
Method: as §1
as §2, with “pathologists. Preparation of Enriched mRNA: Punch Biopsies were Taken from the Frozen Tissues and were completely homogenized before being processed using the MagNA Pure robot. (Roche Diagnostics Corp., Indianapolis, Ind.) in combination with the MagNA Pure LC RNA Isolation kit II (Roche Diagnostics Corp). The amount of lysis buffer was adjusted to allow 1 ml per 50 mg for liver tissue, or 1 ml per 80 mg for all other tissues. After complete homogenization and before loading of the samples into the 32-well MagNA Pure plate, the samples were syringed 5-6 times using a 20-gauge 3-ml syringe to ensure a smooth solution for robotic processing. Tissue sample processing was performed in duplicate wells (loading 150 μl of homogenized sample and 150 μl of additional lysis buffer to each well) of the MagNA Pure LC, which is programmed to extract mRNA using oligo-dT selection technology into a final elution volume of 100 μl.” for “pathologists.”

[4] = 386 mg/kg orally in corn oil, 3 days, vs vehicle control, average of 3 animals
[5] = rat liver expression data vs Cholestasis Signature, maximum score of training treatments normalised to 100, dose and time not given
[6] = rat liver histopathology, training-set treatments
[7] = 81 mg/kg orally in corn oil, 5 days, vs vehicle control, average of 3 animals
[8] = 16 mg/kg orally in corn oil, 3 days, vs vehicle control, average of 3 animals

In the case of `c1ccc2c(c1)Nc1ccccc1S2` [PHENOTHIAZINE, 2,3:5,6-dibenzo-1,4-thiazine], the “Fold change in serum alkaline phosphatase” value [1, 4] is reported as −1.1 fold, the “Fold change in serum alkaline phosphatase and total bilirubin” value [1, 4] is reported as 3.4 fold and the “Fold change in serum total bilirubin” value [1, 4] is reported as 3.7 fold. For the same compound, the “Sequence Projection Score (SPS)” value [2, 5] was 49* and the steatosis [3, 6] was “moderate to very severe”.
`Cc1ccc(C)c(OCCCC(C)(C)C(=O)O)c1` [GEMFIBROZIL, 5-(2,5-dimethylphenoxy)-2,2-dimethylpentanoic acid] was tested, and the “raised serum levels of ALP and TBI compared with vehicle-treated control animals” value ([1]; in vivo, po) was “at least 2 fold”, the “Fold change in serum alkaline phosphatase” value ([1]; in vivo, po, 700 mg/kg) was 2.1 fold and the “Sequence Projection Score (SPS)” value ([2]; rat, in vivo) was 28*. The “increased hepatocyte enlargement and increased eosinophilic granular cytoplasm” value ([3]; rat, in vivo) was “mild to severe” and the “nuclear/cytoplasmic condensation (apoptosis) and/or necrosis in liver” value (shortened to “nuclear/cytoplasmic condensation”) ([3]; rat, in vivo) was “mild to moderate”.
For `Clc1ccccc1C(c1ccccc1)(c1ccccc1)n1ccnc1` [CLOTRIMAZOLE, 1-(o-chloro-α,α-diphenylbenzyl)imidazole], the “raised serum levels of ALP and TBI compared with vehicle-treated control animals” value ([1]; in vivo, po) was “at least 2 fold”, the “Fold change in serum alkaline phosphatase” value ([1]; in vivo, po, 178 mg/kg) was 1.4 fold and the “Fold change in serum alkaline phosphatase and total bilirubin” value ([1]; in vivo, po, 178 mg/kg) was 2.9 fold. The “Fold change in serum total bilirubin” value ([1]; in vivo, po, 178 mg/kg) was 2.0 fold, the “Sequence Projection Score (SPS)” value ([2]; rat, in vivo) was 33* and the “nuclear/cytoplasmic condensation” value ([3]; rat, in vivo) was “mild to moderate”. For the same compound, the steatosis ([3]; rat, in vivo) was “moderate to very severe”.
In the case of `Nc1ccc(Cc2ccc(N)cc2)cc1` [4,4′-DIAMINODIPHENYLMETHANE, 4,4′-diaminodiphenylmethane], the “Fold change in serum alkaline phosphatase” value [1, 7] is reported as 1.6 fold, the “Fold change in serum alkaline phosphatase and total bilirubin” value [1, 7] is reported as 7.7 fold and the “Fold change in serum total bilirubin” value [1, 7] is reported as 4.9 fold. For the same compound, the “Sequence Projection Score (SPS)” value [2, 5] was 77** and the bile duct hyperplasia [3, 6] was “moderate”.
In the case of `O=NN(CCCl)C(=O)NCCCl` [CARMUSTINE, 1,3-bis(2-chloroethyl)-1-nitrosourea], the “Fold change in serum alkaline phosphatase” value [1, 8] is reported as 1.7 fold, the “Fold change in serum alkaline phosphatase and total bilirubin” value [1, 8] is reported as 8.1 fold and the “Fold change in serum total bilirubin” value [1, 8] is reported as 4.6 fold. The “Sequence Projection Score (SPS)” value [2, 5] was 69*, the “increased hepatocyte enlargement and increased eosinophilic granular cytoplasm” value [3, 6] was “mild to severe” and the “nuclear/cytoplasmic condensation” value [3, 6] was “mild to moderate”. The bile duct hyperplasia [3, 6] was “moderate”.
